Assay results reported in US9296704B2, “Substituted pyrimidines as protein kinase inhibitors” (CELGENE AVILOMICS RESEARCH, INC., priority 2007, dated 2016).
One block for each compound: values may come before it.

Tests used:
[1] = system: BTK in Ramos cells; assay: Washout experiment with Ramos cells for BTK activity; type: cell-based, human; details: for BTK Inhibition Type: Ramos washout assay, 100 nM compound for 1 hour
Experimental: Ramos cells were serum starved for one hour in RPMI media+1% glutamine at 37° C. After starvation, Ramos cells were treated with 100 nM compound diluted in serum free RPMI media for 1 hour. After compound treatment, the media was removed and cells were washed with compound-free media. Subsequently, Ramos cells were washed every 2 hours and resuspended in fresh compound-free media. Cells were collected at specified timepoints, treated with 1 ug anti-human IgM (Southern Biotech cat #2022-01) for 10 minutes on ice to induce BCR signaling and then washed in PBS. Ramos cells were then lysed in Cell Extraction Buffer (Invitrogen FNN0011) supplemented with Roche complete protease inhibitor tablets (Roche 11697498001) and phosphatase inhibitors (Roche 04 906 837 001) and 18 ug total protein lysate was loaded in each lane. Inhibition of BTK kinase activity was assayed by measuring its substrate (PLCγ2) phosphorylation by western blot with phospho-specific antibodies from Cell Signaling Technologies cat#3871. FIG. 10 depicts the results of compound I-13 in the washout experiment at 0 hour, 4 hour, 6 hour, and 8 hour time points.

[2] = target: BTK (Homo sapiens, UniProt Q06187); assay: Mass spectrometry for BTK (intact protein); type: binding; details: 10× excess, 1 hr, MALDI
Chain of BTK (Q06187 whole entry): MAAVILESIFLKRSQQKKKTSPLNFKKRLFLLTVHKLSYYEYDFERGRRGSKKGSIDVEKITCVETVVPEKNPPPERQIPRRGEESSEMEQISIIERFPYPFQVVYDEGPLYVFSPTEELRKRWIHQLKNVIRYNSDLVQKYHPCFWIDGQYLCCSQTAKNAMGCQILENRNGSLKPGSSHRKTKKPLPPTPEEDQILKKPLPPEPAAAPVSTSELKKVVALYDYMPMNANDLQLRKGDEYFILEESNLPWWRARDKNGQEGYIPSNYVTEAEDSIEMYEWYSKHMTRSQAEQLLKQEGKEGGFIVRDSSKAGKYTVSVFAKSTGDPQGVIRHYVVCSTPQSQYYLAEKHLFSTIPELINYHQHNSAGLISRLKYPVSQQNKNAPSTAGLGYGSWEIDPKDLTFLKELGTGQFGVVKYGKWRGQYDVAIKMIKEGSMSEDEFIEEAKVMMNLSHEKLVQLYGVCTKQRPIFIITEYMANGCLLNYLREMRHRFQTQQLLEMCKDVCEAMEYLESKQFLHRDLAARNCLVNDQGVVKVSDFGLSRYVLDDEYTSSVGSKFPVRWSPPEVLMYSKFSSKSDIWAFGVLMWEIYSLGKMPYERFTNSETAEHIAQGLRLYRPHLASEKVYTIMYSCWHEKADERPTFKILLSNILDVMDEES
Experimental: Intact BTK was incubated for 1 hr at a 10× fold excess of compound I-63 or I-66 to protein. Aliquots (2 ul) of the samples were diluted with 10 ul of 0.1% TFA prior to micro C4 ZipTipping directly onto the MALDI target using Sinapinic acid as the desorption matrix (10 mg/ml in 0.1% TFA:Acetonitrile 20:80). The top panels of FIGS. 12 and 13 show the mass spec trace of the intact BTK protein (m/z 81,169 Da). The bottom panels show the mass spec trace when BTK was incubated with compound I-63 (mw 424.5) or compound I-66 (mw 425.5) in FIGS. 12 and 13, respectively.

[3] = target: ErbB2 (Homo sapiens, UniProt P04626); assay: Z'-LYTE biochemical assay, ErbB2 kinase inhibition
Chain of ErbB2 (P04626 23-1255): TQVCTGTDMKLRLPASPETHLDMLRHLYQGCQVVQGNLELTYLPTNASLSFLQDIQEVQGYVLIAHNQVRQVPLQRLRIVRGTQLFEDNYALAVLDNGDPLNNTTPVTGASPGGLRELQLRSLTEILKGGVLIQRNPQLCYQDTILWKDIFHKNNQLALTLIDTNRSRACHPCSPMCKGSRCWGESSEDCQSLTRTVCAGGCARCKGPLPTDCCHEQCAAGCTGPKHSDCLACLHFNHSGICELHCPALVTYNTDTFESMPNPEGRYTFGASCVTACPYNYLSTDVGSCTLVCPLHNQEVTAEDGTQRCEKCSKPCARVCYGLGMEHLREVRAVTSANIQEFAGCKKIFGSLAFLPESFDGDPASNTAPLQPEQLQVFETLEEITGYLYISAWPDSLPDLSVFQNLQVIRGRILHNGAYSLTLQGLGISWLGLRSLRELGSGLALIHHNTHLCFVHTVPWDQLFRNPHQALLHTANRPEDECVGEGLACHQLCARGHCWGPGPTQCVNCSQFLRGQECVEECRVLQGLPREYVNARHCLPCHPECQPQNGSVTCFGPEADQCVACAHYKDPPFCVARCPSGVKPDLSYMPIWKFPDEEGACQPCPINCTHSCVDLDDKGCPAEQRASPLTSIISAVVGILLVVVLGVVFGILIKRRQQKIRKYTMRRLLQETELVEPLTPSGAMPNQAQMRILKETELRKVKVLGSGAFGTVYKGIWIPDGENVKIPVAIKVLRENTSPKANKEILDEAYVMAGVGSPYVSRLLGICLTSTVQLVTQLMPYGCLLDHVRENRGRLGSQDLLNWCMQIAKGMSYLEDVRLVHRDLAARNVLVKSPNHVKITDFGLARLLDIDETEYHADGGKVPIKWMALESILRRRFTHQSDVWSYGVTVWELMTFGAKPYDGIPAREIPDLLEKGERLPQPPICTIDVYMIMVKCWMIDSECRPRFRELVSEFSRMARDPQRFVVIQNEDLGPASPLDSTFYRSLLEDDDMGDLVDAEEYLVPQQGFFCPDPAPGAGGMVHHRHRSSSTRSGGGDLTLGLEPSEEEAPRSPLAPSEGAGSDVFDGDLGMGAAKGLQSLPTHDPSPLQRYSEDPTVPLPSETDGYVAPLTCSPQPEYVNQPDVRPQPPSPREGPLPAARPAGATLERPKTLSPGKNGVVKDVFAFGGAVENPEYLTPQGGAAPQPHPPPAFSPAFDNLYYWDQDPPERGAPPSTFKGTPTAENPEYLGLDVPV
Experimental: (§1) Compounds of the present invention were assayed as inhibitors of one or more of ErbB1, ErbB2, and/or ErbB4 in a manner substantially similar to the method described by Invitrogen Corp (Invitrogen Corporation, 1600 Faraday Avenue, Carlsbad, Calif., CA; http://www.invitrogen.com/downloads/Z-LYTE_Brochure—1205.pdf) using the Z′-LYTE™ biochemical assay procedure or similar biochemical assay. The Z′-LYTE™ biochemical assay employs a fluorescence-based, coupled-enzyme format and is based on the differential sensitivity of phosphorylated and non-phosphorylated peptides to proteolytic cleavage.

[4] = target: ErbB1 (Homo sapiens, UniProt P00533); assay: Z'-LYTE biochemical assay, ErbB1 kinase inhibition
Procedure, shortened: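 Fluorescence-based coupled-enzyme Z′-LYTE format: kinase phosphorylation of a peptide substrate is read by differential protease cleavage of phosphorylated versus non-phosphorylated peptide.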

[5] = target: T1, ErbB4 kinase domain (Homo sapiens, UniProt Q15303); assay: Mass spectrometry for ErbB4 (covalent modification); type: binding; details: 10-fold excess of compound, 90 minutes, MALDI
T1 construct: ErbB4 kinase domain (Upstate) was incubated with compound; purchased Upstate
T1 sequence (Q15303 718-985 limits assumed): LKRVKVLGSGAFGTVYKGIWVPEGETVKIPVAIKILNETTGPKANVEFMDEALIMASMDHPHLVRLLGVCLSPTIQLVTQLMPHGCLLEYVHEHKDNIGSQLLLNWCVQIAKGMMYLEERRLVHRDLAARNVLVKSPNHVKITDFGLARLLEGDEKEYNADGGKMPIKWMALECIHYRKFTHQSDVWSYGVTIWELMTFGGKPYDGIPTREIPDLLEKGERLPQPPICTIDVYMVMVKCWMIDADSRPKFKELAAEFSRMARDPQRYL
Experimental: ErbB4 kinase domain (Upstate) was incubated with compound for 90 minutes at 10-fold excess of compound I-1 to protein. 1 ul aliquots of the samples (total volume of 4.24 ul) were diluted with 10 ul of 0.1% TFA prior to micro C4 ZipTipping directly onto the MALDI target using Sinapinic acid as the desorption matrix (10 mg/ml in 0.1% TFA:Acetonitrile 50:50). For intact protein mass measurement the instrument was set in Linear mode using a pulsed extraction setting of 16,952 for the myoglobin standard used to calibrate the instrument
Intact ErbB4 protein occurs at MH+ of 35850 with corresponding sinapinic (matrix) adducts occurring about 200 Da higher. A stochiometric incorporation of the compound I-1 (Mw of 410 Da) produced a new mass peak which is approximately 410 Da higher (MH+ of 36260).

[6] = target: T2, EGFR mutant (C797S) (Homo sapiens, UniProt P00533, C797S); assay: Mass spectrometry for EGFR mutant (C797S); type: binding; details: 10-fold excess of compound, up to 3 hrs, MALDI
T2 construct: Amino acids 696 to 1022 of the EGFR-WT kinase domain; six-histidine tag (TEV-cleavable) (C); made in house; host or cells: SF21 insect cells (baculovirus; P1 stocks in SF9)
Experimental: (§2) Amino acids 696 to 1022 of the EGFR-WT kinase domain (NM_005228, NP_005219.2) was subcloned into the NcoI and HindIII sites of the pFastHTa vector (Invitrogen, Carlsbad, Calif.). To make the EGFR-mutant protein, the cysteine at position 797 was changed to a serine using the Stratagene QuikChange kit (Stratagene, Cedar Creek, Tex.), according to manufacturer's instructions.
(§3) EGFR wild type and EGFR mutant (C797S) was incubated with 10-fold excess of compound I-1 for 1 hr and 3 hrs. 1 ul aliquots of the samples (total volume 5-8 ul) were diluted with 10 ul of 0.1% TFA prior to micro C4 ZipTipping directly onto the MALDI target using Sinapinic acid as the desorption matrix (10 mg/ml in 0.1% TFA:Acetonitrile 50:50). […] (See FIG. 8).

[7] = target: ErbB4 (Homo sapiens, UniProt Q15303); assay: Z'-LYTE biochemical assay, ErbB4 kinase inhibition
Chain of ErbB4 (Q15303 26-1308): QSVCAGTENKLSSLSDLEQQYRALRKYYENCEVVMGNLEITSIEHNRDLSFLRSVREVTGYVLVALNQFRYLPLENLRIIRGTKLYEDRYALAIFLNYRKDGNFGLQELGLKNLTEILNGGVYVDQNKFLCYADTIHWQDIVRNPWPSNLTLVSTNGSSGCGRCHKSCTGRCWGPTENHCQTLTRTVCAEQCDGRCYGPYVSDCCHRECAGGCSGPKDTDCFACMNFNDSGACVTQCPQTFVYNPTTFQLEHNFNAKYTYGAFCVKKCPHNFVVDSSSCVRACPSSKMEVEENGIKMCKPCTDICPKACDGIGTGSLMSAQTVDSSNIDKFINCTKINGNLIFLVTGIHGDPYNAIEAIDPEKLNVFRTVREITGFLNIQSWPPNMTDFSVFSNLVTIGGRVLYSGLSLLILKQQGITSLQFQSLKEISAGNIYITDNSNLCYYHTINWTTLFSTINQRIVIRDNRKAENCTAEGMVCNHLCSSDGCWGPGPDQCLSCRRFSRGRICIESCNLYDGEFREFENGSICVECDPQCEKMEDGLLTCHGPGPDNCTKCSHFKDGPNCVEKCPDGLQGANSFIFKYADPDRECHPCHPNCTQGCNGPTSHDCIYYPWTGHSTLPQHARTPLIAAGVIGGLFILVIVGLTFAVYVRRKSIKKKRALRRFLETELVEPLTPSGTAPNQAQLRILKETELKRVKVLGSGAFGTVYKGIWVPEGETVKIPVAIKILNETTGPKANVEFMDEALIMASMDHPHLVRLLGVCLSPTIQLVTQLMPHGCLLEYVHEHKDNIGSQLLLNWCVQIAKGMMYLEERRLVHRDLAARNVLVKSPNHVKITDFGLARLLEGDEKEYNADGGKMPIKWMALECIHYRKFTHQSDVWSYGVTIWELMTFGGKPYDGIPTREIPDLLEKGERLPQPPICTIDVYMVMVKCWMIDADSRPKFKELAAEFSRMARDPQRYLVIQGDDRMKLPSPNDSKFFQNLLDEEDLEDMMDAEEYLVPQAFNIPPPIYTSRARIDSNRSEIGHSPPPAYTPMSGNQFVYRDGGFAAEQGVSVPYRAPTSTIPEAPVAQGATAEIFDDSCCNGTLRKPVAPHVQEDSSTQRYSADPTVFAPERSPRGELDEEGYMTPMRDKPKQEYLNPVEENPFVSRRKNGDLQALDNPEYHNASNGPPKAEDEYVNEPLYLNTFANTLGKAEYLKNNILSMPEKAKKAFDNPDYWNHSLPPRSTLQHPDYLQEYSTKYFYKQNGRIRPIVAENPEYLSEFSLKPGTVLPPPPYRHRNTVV
Experimental: as §1

[8] = target: T3, EGFR wild type (Homo sapiens, UniProt P00533); assay: Mass spectrometry for EGFR wild type (covalent modification); type: binding; details: 10-fold excess of compound, 1 hr and 3 hrs, MALDI
T3 construct: Amino acids 696 to 1022 of the EGFR-WT kinase domain; six-histidine tag (TEV-cleavable) (C); made in house; host or cells: SF21 insect cells (baculovirus; P1 stocks in SF9)
Experimental: as §2, §3

[9] = system: EGFR (ErbB1) in A431 human epidermoid carcinoma cells; assay: Washout experiment for EGFR activity in A431 cells; type: cell-based
Experimental: A431 human epidermoid carcinoma cells were grown in 6-well plates to 90% confluence and then incubated in serum-free media for 18 hr. Duplicate sets of cells were treated with 1 μM designated compound for 1 hr. One set of cells was then stimulated with 100 ng/ml EGF for 5 min, and extracts were made as described. The other set of cells was washed free of the compound with warmed compound-free medium, incubated for 2 hr, washed again, incubated another 2 hr, washed again, and then incubated another 2 hr washed again and incubated for additional 2 hr and then stimulated with EGF.

Structure (SMILES): C=CC(=O)Nc1cccc(Nc2cc(Nc3ccc(Oc4ccccc4)cc3)ncn2)c1 [I-13, N-{3-[6-(4-phenoxyphenylamino)-pyrimidin-4-ylamino]phenyl}-2 propenamide]
- inhibition of BTK after washout over time ([1]; Ramos cells, 100 nM, 0, 4, 6 and 8 hour time points): maintains inhibition of BTK for 8 hours
- BTK Inhibition Type [1]: irreversible
- inhibition at 1 µM [3]: 98%
- inhibition at 1 µM ([4]; @ 1 μM): 92%

Structure (SMILES): CN(C)C/C=C/C(=O)Nc1cccc(Nc2cc(Nc3ccc(Oc4ccccc4)cc3)ncn2)n1 [I-64, (E)-4-(dimethylamino)-N-(6-(6-(4-phenoxyphenylamino)pyrimidin-4-ylamino)pyridine-2-yl)but-2-enamide]
- BTK Inhibition Type [1]: irreversible

Structure (SMILES): C=CC(=O)Nc1cccc(Nc2cc(Oc3cccc(C)c3)ncn2)n1 [I-65]
- BTK Inhibition Type [1]: reversible

Further lines, with some results ahead:

- modification of intact BTK by mass shift [2]: complete modification of BTK
Structure (SMILES): C=CC(=O)Nc1cccc(Nc2cc(Nc3ccc(Oc4ccccc4)cc3)ncn2)n1 [I-63]
- BTK Inhibition Type [1]: irreversible

- modification of intact BTK by mass shift [2]: complete modification of BTK
Structure (SMILES): C=CC(=O)Nc1cccc(Nc2cc(Oc3ccc(Oc4ccccc4)cc3)ncn2)n1 [I-66]
- BTK Inhibition Type [1]: irreversible

- modification of ErbB4 by intact mass [5]: covalent modification of ErbB4
- reactivity with EGFR mutant (C797S) by intact mass [6]: no significant reactivity
- inhibition at 0.1 µM ([7]; @ 100 nM): 64%
- inhibition at 1 µM ([7]; @ 1 μM): 86%
- reactivity with EGFR wild type by intact mass [8]: single site covalent modification
- inhibition at 0.1 µM ([3]; @ 100 nM): 61%
- inhibition at 1 µM [3]: 76%
- inhibition at 0.01 µM ([4]; @ 10 nM): 99%
Structure (SMILES): C=CC(=O)Nc1cccc(Nc2cc(Nc3cccc(Br)c3)ncn2)c1 [I-1, N-{3-[6-(3-bromophenylamino)-pyrimidin-4-ylamino]-phenyl}-2-propenamide]
- enzyme inhibition after washout ([9]; A431 cells, 1 μM for 1 hr, washout, EGF stimulation): maintains enzyme inhibition
- type of binding to ErbB1 (irreversible / reversible) ([9]; washout experiment, FIG. 2): irreversibly binds to ErbB1
